Assay results: PubChem BioAssay AID1259407 (Chemical Carcinogenesis Research Information System (CCRIS), 2018)
Calls of active or inactive are those of the source. How the calls were made is not given here.

Test system: CCRIS mutagenicity, Ames/micronucleus/aberration tests
Assay: CCRIS mutagenicity studies

Question: O=NN1CCC[C@H]1c1cccnc1 was tested. Which mutagenic call (Test System: AMES SALMONELLA TYPHIMURIUM, Strain/Indicator: TA98, Metabolic Activation: HAMSTER, LIVER, S-9, AROCLOR 1254, Method: STANDARD PLATE) did it give?
Answer: Its mutagenic call is “inactive; negative”.

Question: And the mutagenic call (Test System: AMES SALMONELLA TYPHIMURIUM, Strain/Indicator: TA98, Metabolic Activation: NONE, Method: STANDARD PLATE)?
Answer: Its mutagenic call is “inactive; negative”.

Question: What about the mutagenic call (Test System: AMES SALMONELLA TYPHIMURIUM, Strain/Indicator: TA98, Metabolic Activation: RAT, LIVER, S-9, AROCLOR 1254, Method: STANDARD PLATE) of the same compound?
Answer: The mutagenic call was “inactive; negative”.

Question: What about the mutagenic call (Test System: AMES SALMONELLA TYPHIMURIUM, Strain/Indicator: TA100, Metabolic Activation: HAMSTER, LIVER, S-9, AROCLOR 1254, Method: STANDARD PLATE) of the same compound?
Answer: Its mutagenic call is “inactive; negative”.

Question: And the mutagenic call (Test System: AMES SALMONELLA TYPHIMURIUM, Strain/Indicator: TA100, Metabolic Activation: NONE, Method: PREINCUBATION)?
Answer: Its mutagenic call is “active; positive”.

Question: And the mutagenic call (Test System: AMES SALMONELLA TYPHIMURIUM, Strain/Indicator: TA100, Metabolic Activation: NONE, Method: STANDARD PLATE)?
Answer: Its mutagenic call is “inactive; negative”.

Question: What about the mutagenic call (Test System: AMES SALMONELLA TYPHIMURIUM, Strain/Indicator: TA100, Metabolic Activation: RABBIT, LUNG, CLARA CELLS, Method: PREINCUBATION) of the same compound?
Answer: The mutagenic call was “inactive; negative”.

Question: And the mutagenic call (Test System: AMES SALMONELLA TYPHIMURIUM, Strain/Indicator: TA100, Metabolic Activation: RABBIT, LUNG, MACROPHAGES, Method: PREINCUBATION)?
Answer: Its mutagenic call is “inactive; negative”.

Question: And the mutagenic call (Test System: AMES SALMONELLA TYPHIMURIUM, Strain/Indicator: TA100, Metabolic Activation: RABBIT, LUNG, S-9, Method: PREINCUBATION)?
Answer: Its mutagenic call is “active; positive”.

Question: What about the mutagenic call (Test System: AMES SALMONELLA TYPHIMURIUM, Strain/Indicator: TA100, Metabolic Activation: RABBIT, LUNG, TYPE II CELLS, Method: PREINCUBATION) of the same compound?
Answer: The mutagenic call was “inactive; negative”.

Question: And the mutagenic call (Test System: AMES SALMONELLA TYPHIMURIUM, Strain/Indicator: TA100, Metabolic Activation: RAT LIVER S-9, AROCLOR 1254, Method: PREINCUBATION)?
Answer: The mutagenic call was “inactive; negative”.

Question: And the mutagenic call (Test System: AMES SALMONELLA TYPHIMURIUM, Strain/Indicator: TA1530, Metabolic Activation: RABBIT, LUNG, CLARA CELLS, Method: PREINCUBATION)?
Answer: Its mutagenic call is “inactive; negative”.

Question: And the mutagenic call (Test System: AMES SALMONELLA TYPHIMURIUM, Strain/Indicator: TA1530, Metabolic Activation: RABBIT, LUNG, MACROPHAGES, Method: PREINCUBATION)?
Answer: The mutagenic call was “inactive; negative”.

Question: And the mutagenic call (Test System: AMES SALMONELLA TYPHIMURIUM, Strain/Indicator: TA1530, Metabolic Activation: RABBIT, LUNG, S-9, Method: PREINCUBATION)?
Answer: Its mutagenic call is “active; positive”.

Question: And the mutagenic call (Test System: AMES SALMONELLA TYPHIMURIUM, Strain/Indicator: TA1530, Metabolic Activation: RABBIT, LUNG, TYPE II CELLS, Method: PREINCUBATION)?
Answer: The mutagenic call was “inactive; negative”.

Question: What about the mutagenic call (Test System: AMES SALMONELLA TYPHIMURIUM, Strain/Indicator: TA1535, Metabolic Activation: HAMSTER, LIVER, S-9, AROCLOR 1254, Method: STANDARD PLATE) of the same compound?
Answer: The mutagenic call was “active; positive”.

Question: What about the mutagenic call (Test System: AMES SALMONELLA TYPHIMURIUM, Strain/Indicator: TA1535, Metabolic Activation: NONE, Method: STANDARD PLATE) of the same compound?
Answer: The mutagenic call was “inactive; negative”.

Question: And the mutagenic call (Test System: AMES SALMONELLA TYPHIMURIUM, Strain/Indicator: TA1535, Metabolic Activation: RAT, LIVER, S-9, AROCLOR 1254, Method: STANDARD PLATE)?
Answer: Its mutagenic call is “inactive; negative”.

Question: What about the mutagenic call (Test System: AMES SALMONELLA TYPHIMURIUM, Strain/Indicator: TA1537, Metabolic Activation: HAMSTER, LIVER, S-9, AROCLOR 1254, Method: STANDARD PLATE) of the same compound?
Answer: Its mutagenic call is “inactive; negative”.

Question: What about the mutagenic call (Test System: AMES SALMONELLA TYPHIMURIUM, Strain/Indicator: TA1537, Metabolic Activation: NONE, Method: STANDARD PLATE) of the same compound?
Answer: Its mutagenic call is “inactive; negative”.

Question: What about the mutagenic call (Test System: AMES SALMONELLA TYPHIMURIUM, Strain/Indicator: TA1537, Metabolic Activation: RAT, LIVER, S-9, AROCLOR 1254, Method: STANDARD PLATE) of the same compound?
Answer: Its mutagenic call is “inactive; negative”.

Question: What about the mutagenic call (Test System: AMES SALMONELLA TYPHIMURIUM, Strain/Indicator: TA1538, Metabolic Activation: HAMSTER, LIVER, S-9, AROCLOR 1254, Method: STANDARD PLATE) of the same compound?
Answer: The mutagenic call was “inactive; negative”.

Question: What about the mutagenic call (Test System: AMES SALMONELLA TYPHIMURIUM, Strain/Indicator: TA1538, Metabolic Activation: NONE, Method: STANDARD PLATE) of the same compound?
Answer: The mutagenic call was “inactive; negative”.

Question: And the mutagenic call (Test System: AMES SALMONELLA TYPHIMURIUM, Strain/Indicator: TA1538, Metabolic Activation: RAT, LIVER, S-9, AROCLOR 1254, Method: STANDARD PLATE)?
Answer: Its mutagenic call is “inactive; negative”.

Question: And the mutagenic call (Test System: AMES SALMONELLA TYPHIMURIUM, Strain/Indicator: TA7004, Metabolic Activation: HAMSTER LIVER S-9, AROCLOR 1254, Method: PREINCUBATION)?
Answer: Its mutagenic call is “inactive; negative”.

Question: What about the mutagenic call (Test System: AMES SALMONELLA TYPHIMURIUM, Strain/Indicator: TA7004, Metabolic Activation: NONE, Method: PREINCUBATION) of the same compound?
Answer: Its mutagenic call is “active; positive”.

Question: And the mutagenic call (Test System: AMES SALMONELLA TYPHIMURIUM, Strain/Indicator: TA7004, Metabolic Activation: RAT LIVER S-9, AROCLOR 1254, Method: PREINCUBATION)?
Answer: Its mutagenic call is “inactive; negative”.

Question: And the mutagenic call (Test System: CHINESE HAMSTER V-79, Strain/Indicator: V-79 (HPRT)/6-THIOGUANINE, Metabolic Activation: RAT, HEPATOCYTES)?
Answer: The mutagenic call was “inactive; negative”.

Question: And the mutagenic call (Test System: CHINESE HAMSTER V-79, Strain/Indicator: V-79 (HPRT)/6-THIOGUANINE, Metabolic Activation: RAT, LIVER, S-9, AROCLOR 1254)?
Answer: The mutagenic call was “inactive; negative”.

Question: And the mutagenic call (Test System: UDS RABBIT LUNG CLARA CELLS, Strain/Indicator: THY INCORP, Metabolic Activation: NONE, Method: LIQUID SCINTILLATION COUNTING)?
Answer: Its mutagenic call is “inactive; negative”.

Question: And the mutagenic call (Test System: UDS RABBIT LUNG MACROPHAGES, Strain/Indicator: THY INCORP, Metabolic Activation: NONE, Method: LIQUID SCINTILLATION COUNTING)?
Answer: The mutagenic call was “inactive; negative”.

Question: And the mutagenic call (Test System: UDS RABBIT LUNG TYPE II CELLS, Strain/Indicator: THY INCORP, Metabolic Activation: NONE, Method: LIQUID SCINTILLATION COUNTING)?
Answer: Its mutagenic call is “inactive; negative”.

Question: And the mutagenic call (Test System: UDS RODENT HEPATOCYTES, Strain/Indicator: THY INCORP (NON-S-PHASE), Method: AUTORADIOGRAPHY)?
Answer: Its mutagenic call is “active; positive”.

Question: For C=C1[C@@H]2CC[C@H]3[C@]4(C)CCC[C@@](C)(C(=O)O)[C@H]4CC[C@]3(C2)[C@H]1O, which mutagenic call (Test System: AMES SALMONELLA TYPHIMURIUM, Strain/Indicator: TM677, Metabolic Activation: RAT, LIVER, S-9, AROCLOR 1254, Method: PREINCUBATION) is on record?
Answer: The mutagenic call was “inactive; negative”.

Question: With Cc1ccc(C(C)C)c(O)c1 as the compound, how does the mutagenic call (End Point: IN VITRO CHROMOSOMAL ABERRATIONS, Test System: SYRIAN HAMSTER EMBRYO (SHE) CELLS, Metabolic Activation: NONE) read?
Answer: The mutagenic call was “inactive; negative; toxic at 520 um”.

Question: What about the mutagenic call (End Point: IN VITRO CHROMOSOMAL ABERRATIONS, Test System: SYRIAN HAMSTER EMBRYO (SHE) CELLS, Metabolic Activation: RAT, LIVER, S-9) of the same compound?
Answer: Its mutagenic call is “active; positive (structural changes)”.

Question: What about the mutagenic call (End Point: In vitro micronucleus, Test System: Human peripheral lymphocytes) of the same compound?
Answer: Its mutagenic call is “active; positive”.

Question: What about the mutagenic call (End Point: In vivo chromosomal aberrations, Test System: Bone marrow cells, Species: Rat, Strain/Sex: Sprague-Dawley/Male, Route: Intraperitoneal) of the same compound?
Answer: The mutagenic call was “active; positive (structural and numerical changes)”.

Question: What about the mutagenic call (End Point: In vivo chromosomal aberrations, Test System: Human peripheral lymphocytes) of the same compound?
Answer: The mutagenic call was “active; positive (structural changes)”.

Question: And the mutagenic call (Test System: AMES SALMONELLA TYPHIMURIUM, Strain/Indicator: TA97, Metabolic Activation: NONE, Method: PREINCUBATION (20 MIN))?
Answer: The mutagenic call was “inactive; negative”.

Question: What about the mutagenic call (Test System: AMES SALMONELLA TYPHIMURIUM, Strain/Indicator: TA97, Metabolic Activation: S-9, Method: PREINCUBATION (20 MIN)) of the same compound?
Answer: Its mutagenic call is “inactive; negative”.

Question: And the mutagenic call (Test System: AMES SALMONELLA TYPHIMURIUM, Strain/Indicator: TA98, Metabolic Activation: NONE, Method: PREINCUBATION (20 MIN))?
Answer: Its mutagenic call is “inactive; negative”.

Question: And the mutagenic call (Test System: AMES SALMONELLA TYPHIMURIUM, Strain/Indicator: TA98, Metabolic Activation: S-9, Method: PREINCUBATION (20 MIN))?
Answer: The mutagenic call was “inactive; negative”.

Question: What about the mutagenic call (Test System: AMES SALMONELLA TYPHIMURIUM, Strain/Indicator: TA100, Metabolic Activation: NONE, Method: PREINCUBATION (20 MIN)) of the same compound?
Answer: The mutagenic call was “inactive; negative”.

Question: And the mutagenic call (Test System: AMES SALMONELLA TYPHIMURIUM, Strain/Indicator: TA100, Metabolic Activation: S-9, Method: PREINCUBATION (20 MIN))?
Answer: The mutagenic call was “inactive; negative”.

Question: Which results are given for CS(=N)(=O)CCC(N)C(=O)O (configuration not stated)?
Answer: mutagenic call (Test System: AMES SALMONELLA TYPHIMURIUM, Strain/Indicator: TA102, Metabolic Activation: NONE, Method: STANDARD PLATE): inactive; negative; mutagenic call (Test System: AMES SALMONELLA TYPHIMURIUM, Strain/Indicator: TA102, Metabolic Activation: RAT, LIVER, S-9, AROCLOR 1254, Method: STANDARD PLATE): inactive; negative
